System: 439559-082-T-J2-PDC complex spheroid growth
Assay: Anticancer human tumor 439559-082-T-J2-PDC patient-derived colon adenocarcinoma cell line growth inhibition [Asc]
Conditions: for IC50: curve of first compound; for viability, T/C: stronger effect = lower value; active = viability on the fitted dose curve at most 10% of control; inactive = the rest
Method in brief: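 Tumor cells were grown as complex spheroids with human endothelial cells (HUVEC) and human mesenchymal stem cells as stroma. Agents were tested alone and in combination, in half-log steps down from the clinical Cmax, or from 10 microM where Cmax was unknown.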
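Also: spheroids exposed to agents for 7 days starting day 3 after seeding.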
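For viability, T/C in this document: percent of DMSO vehicle control viability with 100% = vehicle.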

CCN1CCN(Cc2ccc(Nc3ncc(F)c(-c4cc(F)c5nc(C)n(C(C)C)c5c4)n3)nc2)CC1 + CNC(C)C(=O)NC1CN(S(=O)(=O)c2cccc(S(=O)(=O)N3CCC4CCC(C(=O)NC(c5ccccc5)c5ccccc5)N4C(=O)C(NC(=O)C(C)NC)C3)c2)CCC2CCC(C(=O)NC(c3ccccc3)c3ccccc3)N2C1=O
> 1000 nM: IC50 (second compound 0.00316 µM) | IC50 (second compound 0.01 µM) | IC50 (second compound 0.0316 µM) | IC50 (second compound 0.1 µM) | IC50 (second compound 0.316 µM) | IC50 (second compound 1 µM)
inactive: viability, T/C (second compound 0.00316 µM, first compound 0.00316 µM) 99.5% | viability, T/C (second compound 0.00316 µM, first compound 0.01 µM) 92.6% | viability, T/C (second compound 0.00316 µM, first compound 0.0316 µM) 91% | viability, T/C (second compound 0.00316 µM, first compound 0.1 µM) 94.1% | viability, T/C (second compound 0.00316 µM, first compound 0.316 µM) 85.8% | viability, T/C (second compound 0.00316 µM, first compound 1 µM) 66.9% | viability, T/C (second compound 0.01 µM, first compound 0.00316 µM) 107% | viability, T/C (second compound 0.01 µM, first compound 0.01 µM) 101% | viability, T/C (second compound 0.01 µM, first compound 0.0316 µM) 87.3% | viability, T/C (second compound 0.01 µM, first compound 0.1 µM) 95.4% | viability, T/C (second compound 0.01 µM, first compound 0.316 µM) 88% | viability, T/C (second compound 0.01 µM, first compound 1 µM) 73.1% | viability, T/C (second compound 0.0316 µM, first compound 0.00316 µM) 95.8% | viability, T/C (second compound 0.0316 µM, first compound 0.01 µM) 111% | viability, T/C (second compound 0.0316 µM, first compound 0.0316 µM) 89.6% | viability, T/C (second compound 0.0316 µM, first compound 0.1 µM) 96.8% | viability, T/C (second compound 0.0316 µM, first compound 0.316 µM) 94.5% | viability, T/C (second compound 0.0316 µM, first compound 1 µM) 78.5% | viability, T/C (second compound 0.1 µM, first compound 0.00316 µM) 103% | viability, T/C (second compound 0.1 µM, first compound 0.01 µM) 87.9% | viability, T/C (second compound 0.1 µM, first compound 0.0316 µM) 99% | viability, T/C (second compound 0.1 µM, first compound 0.1 µM) 94.6% | viability, T/C (second compound 0.1 µM, first compound 0.316 µM) 95.5% | viability, T/C (second compound 0.1 µM, first compound 1 µM) 64.2% | viability, T/C (second compound 0.316 µM, first compound 0.00316 µM) 91.6% | viability, T/C (second compound 0.316 µM, first compound 0.01 µM) 84.2% | viability, T/C (second compound 0.316 µM, first compound 0.0316 µM) 86.8% | viability, T/C (second compound 0.316 µM, first compound 0.1 µM) 75.5% | viability, T/C (second compound 0.316 µM, first compound 0.316 µM) 82% | viability, T/C (second compound 0.316 µM, first compound 1 µM) 65.5% | viability, T/C (second compound 1 µM, first compound 0.00316 µM) 88.9% | viability, T/C (second compound 1 µM, first compound 0.01 µM) 77.3% | viability, T/C (second compound 1 µM, first compound 0.0316 µM) 69.4% | viability, T/C (second compound 1 µM, first compound 0.1 µM) 69.2% | viability, T/C (second compound 1 µM, first compound 0.316 µM) 62.1% | viability, T/C (second compound 1 µM, first compound 1 µM) 48.9%

NC(=O)C(=Cn1cnc(-c2cc(C(F)(F)F)cc(C(F)(F)F)c2)n1)c1cncnc1 + CNC(C)C(=O)NC1CN(S(=O)(=O)c2cccc(S(=O)(=O)N3CCC4CCC(C(=O)NC(c5ccccc5)c5ccccc5)N4C(=O)C(NC(=O)C(C)NC)C3)c2)CCC2CCC(C(=O)NC(c3ccccc3)c3ccccc3)N2C1=O
> 300 nM: IC50 (second compound 0.00316 µM) | IC50 (second compound 0.01 µM) | IC50 (second compound 0.0316 µM) | IC50 (second compound 0.1 µM) | IC50 (second compound 0.316 µM) | IC50 (second compound 1 µM)
inactive: viability, T/C (second compound 0.00316 µM, first compound 0.000949 µM) 105% | viability, T/C (second compound 0.00316 µM, first compound 0.003 µM) 101% | viability, T/C (second compound 0.00316 µM, first compound 0.00949 µM) 102% | viability, T/C (second compound 0.00316 µM, first compound 0.03 µM) 97% | viability, T/C (second compound 0.00316 µM, first compound 0.0949 µM) 98.2% | viability, T/C (second compound 0.00316 µM, first compound 0.3 µM) 79.4% | viability, T/C (second compound 0.01 µM, first compound 0.000949 µM) 101% | viability, T/C (second compound 0.01 µM, first compound 0.003 µM) 92.3% | viability, T/C (second compound 0.01 µM, first compound 0.00949 µM) 94.1% | viability, T/C (second compound 0.01 µM, first compound 0.03 µM) 98.7% | viability, T/C (second compound 0.01 µM, first compound 0.0949 µM) 102% | viability, T/C (second compound 0.01 µM, first compound 0.3 µM) 92.4% | viability, T/C (second compound 0.0316 µM, first compound 0.000949 µM) 94.1% | viability, T/C (second compound 0.0316 µM, first compound 0.003 µM) 87.3% | viability, T/C (second compound 0.0316 µM, first compound 0.00949 µM) 100% | viability, T/C (second compound 0.0316 µM, first compound 0.03 µM) 99.7% | viability, T/C (second compound 0.0316 µM, first compound 0.0949 µM) 108% | viability, T/C (second compound 0.0316 µM, first compound 0.3 µM) 84.8% | viability, T/C (second compound 0.1 µM, first compound 0.000949 µM) 96.3% | viability, T/C (second compound 0.1 µM, first compound 0.003 µM) 103% | viability, T/C (second compound 0.1 µM, first compound 0.00949 µM) 94.9% | viability, T/C (second compound 0.1 µM, first compound 0.03 µM) 99.3% | viability, T/C (second compound 0.1 µM, first compound 0.0949 µM) 101% | viability, T/C (second compound 0.1 µM, first compound 0.3 µM) 87.2% | viability, T/C (second compound 0.316 µM, first compound 0.000949 µM) 100% | viability, T/C (second compound 0.316 µM, first compound 0.003 µM) 99.2% | viability, T/C (second compound 0.316 µM, first compound 0.00949 µM) 87.2% | viability, T/C (second compound 0.316 µM, first compound 0.03 µM) 86.2% | viability, T/C (second compound 0.316 µM, first compound 0.0949 µM) 97% | viability, T/C (second compound 0.316 µM, first compound 0.3 µM) 82.8% | viability, T/C (second compound 1 µM, first compound 0.000949 µM) 79.1% | viability, T/C (second compound 1 µM, first compound 0.003 µM) 80% | viability, T/C (second compound 1 µM, first compound 0.00949 µM) 86.8% | viability, T/C (second compound 1 µM, first compound 0.03 µM) 71.4% | viability, T/C (second compound 1 µM, first compound 0.0949 µM) 88.7% | viability, T/C (second compound 1 µM, first compound 0.3 µM) 74.2%
